From patent US20260345485A1, “INTRATHECAL NANOPARTICLE DELIVERY FOR TREATMENT OF LEPTOMENINGEAL TUMORS WITH CORE-SHELL PARTICLES MADE OF HYPERBRANCHED POLYGLYCEROL AND POLYLACTIC ACID” (priority 2022, published 2026)
Where two headings read alike, the source gives them in different places.

Columns and labels:
[1] = tolerability / maximum tolerated dose after intrathecal dosing
Experimental: To investigate toxicity, healthy female nude mice were first administered a specific dose of either free BMN-673 or BMN-NPs ranging from 0.03 mg/kg to 1.25 mg/kg. The mice were monitored for weight-loss or other signs of distress, and if the dose was well tolerated, 4 additional mice were dosed and monitored (n=5).
Toxicology studies were conducted in healthy female nude mice to characterize the safety of BMN-NPs in vivo. […] Increasing doses of either BMN-NP or free BMN-673 were administered to animals. Body weight loss and overall animal health were closely monitored.

[2] = hematological toxicity after intrathecal dosing; conditions: for blood cell counts: at MTD
Experimental: For hematological analysis, healthy nude mice (n=5 per time point) were administered either free BMN-673 (0.05 mg/kg) or BMN-NPs (0.5 mg/kg). At 3 days and 7 days post administration, 100 μL of blood was drawn via cardiac puncture using 15 μL EDTA-coated tubes. Levels of blood cell counts were measured using HEMA VET® HV950 multispecies hematologic analyzer (Drew Scientific, Oxford, CT, USA). Spleens and livers were harvested, fixed in formalin overnight, and H&E stained for histopathological evaluation.
To further test systemic toxicity differences between BMN-NPs and free BMN, red blood cells, white blood cells, and platelet levels were monitored in mice at day 3 and day 7 following two bi-weekly administrations at MTD (FIG. 5C).

[3] = system: DAOY cells; assay: DAOY intracisternal xenograft, single-dose treatment; type: in vivo, J:Nu mice; conditions: single dose 0.1 mg/kg
Experimental: Intra-cisternal transplantation of DAOY cells stably expressing luciferase was used for in vivo studies. A surgical catheter was implanted into their cisterna magna, and used for both cellular implantation and IT dosage during treatment. Mice were treated when their tumoral luminescence burden was detectable at […] BLI (unit), 7 days post-implantation. Mice were treated once, at the same dose level of 0.1 mg/kg with either BMN NPs or free BMN-673 (FIG. 7A).

[4] = system: DAOY cells; assay: DAOY intracisternal xenograft, twice-weekly treatment; conditions: 0.25 mg/kg BMN-NPs or 0.03 mg/kg free BMN-673
Experimental: DAOY cells (ATCC) were inoculated in 8 week J:Nu female mice at 10^5 cells suspended in 6 μL of DPBS. Tumor growth was followed by luminescence imaging twice a week, implantation. For luminescence imaging, mice were injected with 200 μL of a solution of D-Luciferin (15 mg/ml, Caliper Life Science) and imaged 5 minutes after injection using an IVIS200 in vivo imaging system (Xenogen, Caliper Life Science). An image showing light intensity (photons/second) was generated and the signal in each mouse was quantified using Living Image 4.0 software (Xenogen). On day 7 after tumor injection, all mice were randomized and treated with BMN-673 loaded NPs or free BMN-673 drug either once a week or bi-weekly for two weeks. Tumors were monitored for regression or progression with BLI, and left until neurological symptoms appeared or humane endpoint was reached (slow motion, >20% weight lose).
This study was repeated using twice-weekly dosing of 0.25 mg/kg of BMN-NPs or 0.03 mg/kg for free BMN-673 (FIGS. 7D-7F).

[5] = system: DAOY, D341, and D283 cells; assay: drug combination synergy (Loewe model, CellTiter-Glo viability); type: cell-based
[6] = system: D341 cells; assay: D341 xenograft with existing spinal metastasis; type: in vivo, mice
Experimental: In the D341 model, most mice develop spinal metastasis that is detectable by IVIS imaging within 7 days of inoculation, so it was tested whether BMN-NPs and free BMN were efficacious against existing spinal metastasis by starting treatment at day 7 in the presence of leptomeningeal metastasis. […] This therapy was improved with a temozolomide (TMZ) combination approach. The synergy between TMZ and PARPi is well documented in vitro, as PARP1 trapping sensitizes cells to the DNA methylation mechanism of TMZ, but in vivo, a reduction in the PARPi dose is necessary to prevent acute toxicity.

[7] = system: PARP1; conditions: cited from earlier work
[8] = type: in vivo; conditions: i.v., after 20 minutes, tumor-bearing mice
Experimental: CNS retention of ^89Zr-DFO-NPs was assessed in tumor-bearing mice. A leptomeningeal metastatic medulloblastoma model was administered DAOY cells stably expressing luciferase by IT injection into the CM. […] Two mice were injected intravenously with Gd-DTPA, and imaged via MRI after 20 minutes.

[9] = system: medulloblastoma cell line D283; conditions: 1 micromolar Olaparib with radiation; cited from earlier work
[10] = system: breast, prostate and ovarian cancer; conditions: clinical trials; cited from earlier work
[11] = combined with BMN-673, across all cell lines

Cn1ncnc1[C@H]1c2n[nH]c(=O)c3cc(F)cc(c23)N[C@@H]1c1ccc(F)cc1 [BMN-673, talazoparib]
body weight loss ([1]; 0.03 mg/kg twice a week, IT): less than 10% | body weight loss ([1]; 0.05 mg/kg, single IT dose): less than 15% | dose above which toxicity-related symptoms developed (lethargy, labored breathing, death) ([1]; IT): greater than 0.06 mg/kg | LD50 ([1]; mouse, in vivo): 0.125 mg/kg | MTD ([1]; mouse, in vivo): 0.05 mg/kg | lethal dose (lethal at any dose at or higher than) ([1]; single IT dose, J:Nu mice): ≥ 0.06 mg/kg | blood cell counts ([2]; 3 days post-treatment): a decrease in all leukocytes except for monocytes, and also showed a reduction in platelet count | blood cell counts ([2]; by 7 days): did not show an improvement outside of basophil count | blood cell levels ([2]; two bi-weekly administrations, 0.05 mg/kg/week free BMN, day 3 to day 7): progressive leukopenia and thrombocytopenia at day 3 which did not improve appreciably at day 7 | body weight loss versus BMN-NP group [3]: lost significantly more weight than the BMN-NP group | mice with tumor reduction benefit [3]: one out five | tumor response [4]: tumors continued to progress with treatment of free drug | synergy with TMZ (combinatorial index) ([5]; Loewe synergy model, with temozolomide): high levels of synergy | cell viability compared to BMN-673 alone ([5]; incremental log-fold increases in BMN-673 in presence of TMZ): decreased viability | effect on cerebral and spinal tumor burden ([6]; four repeat doses, free BMN-673 at equitoxic dose, start day 7): no effect | tolerability ([6]; in combination with temozolomide): not tolerated at even the lowest doses of BMN-673 | PARP1 trapping [7]: potent PARP1 trap

O=P1(N(CCCl)CCCl)NCCCO1 (stereo not shown) [Cyclophosphamide]
synergy with BMN-673 [5]: did not show consistent synergist action

O=C(O)CN(CCN(CC(=O)O)CC(=O)O)CCN(CC(=O)O)CC(=O)O.[Gd+3] [Gd-DTPA]
signal in the brain by MRI [8]: no detectable Gd-DTPA signal in the brain

CCc1c2c(nc3ccc(OC(=O)N4CCC(N5CCCCC5)CC4)cc13)-c1cc3c(c(=O)n1C2)COC(=O)[C@]3(O)CC [Irinotecan]
synergy with BMN-673 [5, 11]: did not show consistent synergist action

O=NN(CCCl)C(=O)NC1CCCCC1 [Lomustine]
synergy with BMN-673 [5, 11]: did not show consistent synergist action

O=C(c1cc(Cc2n[nH]c(=O)c3ccccc23)ccc1F)N1CCN(C(=O)C2CC2)CC1 [Olaparib, olaparib]
DNA double stranded breaks [9]: high levels of DSB | anti-tumour effect and side effects [10]: anti-tumour effect and side effects of grade 1 or 2

CC[C@@]1(O)C(=O)OCc2c1cc1n(c2=O)Cc2cc3c(CN(C)C)c(O)ccc3nc2-1 [Topotecan]
synergy with BMN-673 [5, 11]: did not show consistent synergist action

C[C@]1(c2nc3c(C(N)=O)cccc3[nH]2)CCCN1 [veliparib]
PARP1 trapping [7]: relatively poor PARP1 trapping ability
